Measured values from article PMC7864055, “Biochemical and biophysical analyses of hypoxia sensing prolyl hydroxylases from Dictyostelium discoideum and Toxoplasma gondii” (The Journal of Biological Chemistry, 2021).

Tests used:
TgPhyA [1] = molecular target: T1, TgPhyA (Toxoplasma gondii, UniProt A0A7J6K353); test: 1H NMR of 2OG conversion to succinate; assay type: biochemical; conditions: uncoupled (no Skp1); enzyme 20 μM, 2OG 500 μM, Fe(II) 50 μM, ascorbate 1 mM, Tris-D11 pH 7.5, room temperature
T1 construct: gene TGRH88_076950; full-length, recombinant; purification in Supporting information
T1 sequence (A0A7J6K353 1-271): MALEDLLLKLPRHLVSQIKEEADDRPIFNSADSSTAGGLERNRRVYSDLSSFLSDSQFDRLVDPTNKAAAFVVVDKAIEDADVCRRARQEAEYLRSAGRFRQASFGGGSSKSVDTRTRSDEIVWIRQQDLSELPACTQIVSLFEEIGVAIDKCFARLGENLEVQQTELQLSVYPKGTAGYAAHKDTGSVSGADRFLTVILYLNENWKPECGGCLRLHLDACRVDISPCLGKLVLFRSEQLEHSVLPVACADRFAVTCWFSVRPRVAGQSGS

DdPhyA = molecular target: T2, DdPhyA (Dictyostelium discoideum, UniProt Q86KR9); test: differential scanning fluorimetry, SYPRO Orange; assay type: binding; conditions: with metal (Ni(II)); 25-80 °C; construct (full-length or truncated) not told in main text
T2 construct: gene phyA; full-length aa 1-284, E. coli BL21 Gold (DE3), N-terminal His6-ZBasic tag cleaved by TEV, EDTA-treated to remove metal
T2 sequence (Q86KR9 whole entry, the tested form may be a part): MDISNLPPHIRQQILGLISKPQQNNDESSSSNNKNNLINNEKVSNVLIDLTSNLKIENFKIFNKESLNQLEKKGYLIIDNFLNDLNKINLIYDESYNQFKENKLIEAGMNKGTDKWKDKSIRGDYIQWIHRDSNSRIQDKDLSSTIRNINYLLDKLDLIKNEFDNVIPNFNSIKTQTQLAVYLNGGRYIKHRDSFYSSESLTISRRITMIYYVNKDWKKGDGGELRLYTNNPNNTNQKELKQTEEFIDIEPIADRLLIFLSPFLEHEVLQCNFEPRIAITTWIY

DdPhyA(60-284) = molecular target: T3, DdPhyA(60-284) (Dictyostelium discoideum, UniProt Q86KR9); test: X-ray crystallography, […] Å; assay type: binding; conditions: Ni(II) in place of Fe(II); active site, bidentate to metal, no Skp1 substrate
T3 construct: gene phyA; catalytic domain residues 60-284 (once printed 60-286), E. coli, His6-ZBasic tag cleaved; 3 molecules per asymmetric unit; Ni(II) substituting for Fe(II)
T3 sequence (Q86KR9 60-284): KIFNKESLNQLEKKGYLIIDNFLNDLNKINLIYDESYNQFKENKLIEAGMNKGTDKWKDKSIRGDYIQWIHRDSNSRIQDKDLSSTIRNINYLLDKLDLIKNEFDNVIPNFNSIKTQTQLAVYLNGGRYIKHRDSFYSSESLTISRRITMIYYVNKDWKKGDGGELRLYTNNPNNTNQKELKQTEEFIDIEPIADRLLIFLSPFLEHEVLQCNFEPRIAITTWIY
Source text: The C-5 carboxylate of NOG is bound

TgPhyA [2] = molecular target: T1, TgPhyA; test: differential scanning fluorimetry, SYPRO Orange; assay type: binding; conditions: with metal (Ni(II)); 25-80 °C

For `O=C(O)CCC(=O)C(=O)O` [2OG], the 2OG turnover (TgPhyA [1]) was “TgPhyA exhibited substantial uncoupled 2OG turnover in the absence of substrate”.

`O=C(O)CNC(=O)C(=O)O` [NOG] was tested, and the Tm shift (DdPhyA) was “Ni(II) ions and N-oxalylglycine (a stable 2OG analog, Fig. S9) stabilize the enzymes”, the “X-ray crystallography, 2.02 Å” value (DdPhyA(60-284)) was “the latter in a bidentate manner. The C-5 carboxylate of NOG is bound” and the Tm shift (TgPhyA [2]) was “Ni(II) ions and N-oxalylglycine (a stable 2OG analog, Fig. S9) stabilize the enzymes”.
